Like-named read-outs stand apart in the source and are kept apart here.
How the values were obtained:
Rat [1] = assay: Maximal electroshock seizure (MES) test, rat (po); format: in vivo
Method: (§2) The maximal electroconvulsive shock (MES) test is regarded as a standard screen for anticonvulsant activity in terms of inhibition of seizure spread in generalized tonic-clonic seizures.
(§3) Groups of at least 8 male albino CF No. 1 mice or male albino Sprague-Dawley rats are treated with 10 mL/kg i.p. or 4 mL/kg p.o. of the test compound solution, respectively. The electrical stimulus in the MES test is 50 mA at 60 Hz for mice and 150 mA at 60 Hz for rats, both delivered for 0.2 sec. Abolition of the hind leg tonic extensor component of the seizure is used as the endpoint.

[2] = Neurological toxicity, rotorod test, mice (ip); format: in vivo; details: male, CF No 1, mouse, in vivo
Method: (§1) Tests are conducted in groups of at least 8 mice or rats to determine the intrinsic neurotoxicity (neuromuscular impairment) after administration of the test compound by the route of administration to be used in the pharmacology studies. Neurotoxicity is determined in male CF No 1 mice by the rotarod procedure. Inability of the mouse to maintain its equilibrium in 3 trials during 1 min on this rotating rod (6 rpm) is used as an indication of such impairment. In Sprague-Dawley rats, minimal motor impairment (MMI) is determined by overt evidence of ataxia, abnormal gait, and stance.

Mice [3] = assay: Formalin test (mice, ip); format: in vivo; details: for Formalin Assay Acute (%) / Formalin Assay Inflam. (%): mice, ip; for Formalin Test (mice, ip) Inflammatory (%): duration of licking as percent of control, late phase
Method: Compounds of the present invention were active in treating pain in a formalin test carried out in accordance with standard techniques, as described in S. Hunskaar et al., J. Neurosci. Methods 14: 69-76 (1985). Briefly, 0.5% formalin is injected into the mouse hind paw to elicit a bi-phasic licking response, where the first acute phase is thought to correspond to the direct stimulation of peripheral fibers and the second (inflammatory) phase is caused by the release of inflammatory mediators.
Spinal/supraspinal plasticity of nociception is considered as a molecular basis for neuropathic pain particularly during the second (late) phase of the test (Dubuisson & Dennis, 1977; Coderre et al., 1990; Coderre & Melzack, 1992), during which most clinically used drugs against neuropathic pain are active.

Rats [4] = assay: Partial sciatic nerve ligation model (rats, ip); format: in vivo; details: dose 12 (mg), at 1 h, p < 0.05
Mice [5] = details: cited from earlier work; for Mice (ip) Mes, ED50: Ref 30, 16, 32
Rat [6] = details: cited from earlier work
Mice [7] = details: rotorod, Ref 30, 16, 32; cited from earlier work
Rat [8] = details: Ref 16, 32; cited from earlier work
Mice [9] = assay: Maximal electroshock seizure (MES) test, mice (ip);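 note: male albino CF No. 1 mice dosed ip, MES stimulus 50 mA at 60 Hz lasting 0.2 s, efficacy endpoint is loss of hind leg tonic extension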
Method: as §2, §3

Mice [10] = assay: 6 Hz test, mice (ip); format: in vivo; details: for ED50: Mus musculus, ip, intraperitoneally
Mice [11] = assay: Neurological toxicity, rotorod test, mice (ip); format: in vivo
Method: as §1

Rat [12] = assay: Behavioral toxicity, rat (po); format: in vivo
Method: as §1

Rats [13] = assay: Hippocampal kindling test, rats (ip); format: in vivo; details: rats; for Preliminary Hippocampal Kindling Test (Rats) Seizure Score, Drug: after drug (pre-drug score in neighbouring column); for ED50: Rattus norvegicus, ip, read-out: Hippocampal Kindled Rats (ip) ED50 (interval)
Method: The kindling model provides a tool to predict a test compound's activity in complex partial seizures.
Male albino Sprague-Dawley rats (n=8) are kindled to a Stage 5 behavioral seizure. They are treated with an appropriate i.p. dose of the test compound after a 1-week, stimulus-free period. The test compound is evaluated for its effect on kindled motor seizures (seizures scores of 4 and 5), limbic behavior seizures (seizure scores between 1 and 3) and after-discharge duration. After 15 min, each rat is stimulated every 30 min for 3-4 h. Following each stimulation, individual seizure scores and after-discharge duration are recorded. The group mean and standard error of the mean (SEM) are calculated for each parameter.

[14] = Behavioral toxicity, rat (po); format: in vivo; details: Sprague-Dawley, in vivo, po, read-out: Rat (po) Tox, TD50
Method: as §1

Mice [15] = system: Mice
Method: as §2, §3

[16] = rotorod test, read-out: Mice (ip) Tox, Td50
[17] = Table b501, orally, behavioral toxicity
[18] = Table b501, ip, protective index (TD50/ED50)
[19] = Rattus norvegicus, read-out: Rat (po) MES, ED50

COC[C@@H](NC(C)=O)C(=O)NCc1ccc(OCc2cccc(F)c2)cc1 [(R)-3, (R)-2-Acetamido-N-(4-(3-fluorobenzyloxy)benzyl)-3-methoxypropanamide]
Rat (po) PI (Rat [1]; PI=TD50/ED50): >36 | TD50 ([2]; read-out: Mice (ip) Tox, TD50): 26 mg/kg | Formalin Assay Acute (%) (Mice [3]; dose 15 (mg)): 35% | Formalin Assay Inflam. (%) (Mice [3]; dose 15 (mg)): 44% | Partial Sciatic Nerve Ligation Assay: attenuation of mechanical allodynia (Rats [4]): 11.2 fold attentaution of mechanical | Mice (ip) Mes, ED50 (Mice [5]): 4.5 [0.5] mg/kg | Rat (po) MES, ED50 (Rat [6]; Ref 16, 32): 3.9 [2.0] mg/kg | Mice (ip) Tox, TD50 (Mice [7]): 27 [0.25] mg/kg | Rat (po) Tox, TD50 (Rat [8]): >500 mg/kg | Mice (ip) MES, ED50 (Mice [9]; ip): 13 [0.25] | Mice (ip) PI (Mice [9]; ip, PI=TD50/ED50): ~2

COC[C@@H](NC(C)=O)C(=O)NCc1ccc(/C=C/c2cccc(F)c2)cc1 [(R)-14, (2-R,E)-N-4-(3-Fluorostyryl)benzyl 2-Acetamido-3-methoxypropionamide]
ED50 (Mice [10]): < 30 mg/kg | TD50 [2, 16]: 100 to 300 mg/kg | melting point: 206 to 208 °C | Mice (ip) MES, ED50 (Mice [9]; Table b501, intraperitoneally): >30, <100 [0.5] mg/kg

COC[C@@H](NC(C)=O)C(=O)NCc1ccc(OCc2cccc(F)c2)cc1 [(R)-10, (R)-2-Acetamido-N-(4-(3-fluorobenzyloxy)benzyl)-3-methoxypropanamide]
Rat (po) MES, ED50 (Rat [1]): 4.9 [1] | Rat (po) PI (Rat [1]; PI=TD50/ED50): >57 | ED50 (Rat [1]; Rattus norvegicus, Table b500, orally, read-out: Rat (po) MES, ED50): 14 mg/kg | ED50 (Rat [1]; Rattus norvegicus, Table b502, orally, read-out: Rat (po) MES, ED50): 14 mg/kg | ED50 (Rat [1]; Rattus norvegicus, read-out: Rat (po) MES, ED50, Table b501, orally): 1.4 mg/kg | Rat (po) PI (Rat [1]; Table b500, protective index (TD50/ED50)): >36 | Rat (po) PI (Rat [1]; Table b501, protective index (TD50/ED50)): >36 | Rat (po) PI (Rat [1]; Table b502, protective index (TD50/ED50)): >36 | Mice (ip) 6 Hz, ED50 (Mice [10]; Table b500, intraperitoneally): ~10 [0.25] mg/kg | Mice (ip) 6 Hz, ED50 (Mice [10]; Table b501, intraperitoneally): ~10 [0.25] mg/kg | Mice (ip) 6 Hz, ED50 (Mice [10]; Table b502, intraperitoneally): ~10 [0.25] mg/kg | Mice (ip) Tox, TD50 (Mice [11]; Table b500, rotorod test): 26 [0.5] mg/kg | Mice (ip) Tox, TD50 (Mice [11]; Table b502, rotorod test): 26 [0.5] mg/kg | Mice (ip) Tox, Td50 (Mice [11]; rotorod test): 26 [0.5] mg/kg | Rat (po) Tox, TD50 (Rat [12]; Table b500, orally, behavioral toxicity): >500 [0.5] mg/kg | Rat (po) Tox, TD50 (Rat [12]; [17]): >500 [0.5] mg/kg | Rat (po) Tox, TD50 (Rat [12]; Table b502, orally, behavioral toxicity): >500 [0.5] mg/kg | Rat (po) Tox, TD50 (Rat [12]; po): > 280 mg/kg | Formalin Test (mice, ip) Inflammatory (%) (Mice [3]; dose 15 mg/kg): 44 (10) % | Formalin Assay Acute (%) (Mice [3]; dose 25 (mg)): 80% | Formalin Assay Inflam. (%) (Mice [3]; dose 25 (mg)): 70% | Preliminary Hippocampal Kindling Test (Rats) After discharge duration, Drug (Rats [13]; after drug (pre-drug duration in neighbouring column)): 0 s | Preliminary Hippocampal Kindling Test (Rats) Seizure Score, Drug (Rats [13]): 0 | Mice (ip) PI (Mice [9]; Table b500, ip, protective index (TD50/ED50)): 2 | Mice (ip) MES, ED50 (Mice [9]; Table b501, intraperitoneally): 13 [0.25] mg/kg | Mice (ip) PI (Mice [9]; [18]): 2 | Mice (ip) MES, ED50 (Mice [9]; Table b502, intraperitoneally): 13 [0.25] mg/kg | Mice (ip) PI (Mice [9]; Table b502, ip, protective index (TD50/ED50)): 2 | Mice (ip) PI (Mice [9]; ip, PI=TD50/ED50): ~3.1

COCCCc1ccc(CNC(=O)[C@@H](COC)NC(C)=O)cc1 [(R)-7]
ED50 (Rat [1]; [19]): 16 mg/kg | TD50 ([2]; read-out: Mice (ip) Tox, TD50): 62 mg/kg | TD50 [14]: > 500 mg/kg

CC(=O)N[C@@H](C)C(=O)NCc1ccccc1 [(S)-4, reference compound]
Mice (ip) Mes, ED50 (Mice [5]): 8.0 mg/kg | Mice (ip) Tox, TD50 (Mice [7]): 630 mg/kg

CCCC(CCC)C(=O)O [valproate]
Formalin Test (mice, ip) Inflammatory (%) (Mice [3]; dose 300 mg/kg): 67 (20) % | ED50 (Rats [13]): 214 mg/kg | Mice (ip) Mes, ED50 (Mice [5]): 270 [0.25] mg/kg | Mice (ip) PI (Mice [5]; Ref 32): 1.6 | Mice (ip) MES, ED50 (Mice [5]; reference drugs marked h): 270 [0.25] | Mice (ip) PI (Mice [5]; reference drugs marked h): 1.6 | Rat (po) MES, ED50 (Rat [6]; Ref 16, 32): 490 [0.5] mg/kg | Rat (po) PI (Rat [6]; Ref 32): 0.6 | Rat (po) MES, ED50 (Rat [6]; reference drugs marked h): 490 [0.5] | Rat (po) PI (Rat [6]; reference drugs marked h): 0.6

COC[C@@H](NC(C)=O)C(=O)NCc1ccc(OC(F)(F)F)cc1 [(R)-4]
ED50 (Rat [1]; [19]): > 30 mg/kg | TD50 [14]: > 30 mg/kg | Formalin Assay Acute (%) (Mice [3]; dose 4.0 (mg)): 52% | Formalin Assay Inflam. (%) (Mice [3]; dose 4.0 (mg)): 50% | Mice (ip) PI (Mice [9]; ip, PI=TD50/ED50): ~9.3

COC[C@@H](NC(C)=O)C(=O)NCc1ccc(C2(C(F)(F)F)N=N2)cc1 [(R)-9, (R)-2-Acetamido-3-methoxy-N-(4-(3-(trifluoromethyl)-3H-diazirin-3-yl)benzyl)propanamide]
ED50 (Rat [1]; read-out: Rat (po) MES, ED50): > 30 mg/kg | TD50 ([2]; read-out: Mice (ip) Tox, TD50): 68 mg/kg | TD50 [14]: > 30 mg/kg | melting point: 195 °C (dec.) | Mice (ip) MES, ED50 (Mice [15]): 15.05 [0.25] (13.93- 16.39) | Mice (ip) PI (Mice [9]; ip, PI=TD50/ED50): 4.4

COC[C@@H](NC(C)=O)C(=O)NCc1ccc(Oc2cccc(F)c2)cc1 [(R)-12, (R)—N-4′-((3″-Fluoro)phenoxy)benzyl 2-N-Acetamido-3-methoxypropionamide]
ED50 (Mice [10]): ~10 mg/kg | TD50 [2, 16]: 23 mg/kg | Rat (po) Tox, TD50 (Rat [12]; [17]): >10 [0.25-4.0] mg/kg | melting point: 125 to 126 °C | Mice (ip) MES, ED50 (Mice [9]; Table b501, intraperitoneally): 5.5 [0.25] (3.2-6.3) mg/kg | Mice (ip) PI (Mice [9]; [18]): 4.2

O=C1NC(=O)C(c2ccccc2)(c2ccccc2)N1 [phenytoin]
Formalin Test (mice, ip) Inflammatory (%) (Mice [3]; dose 6 mg/kg): 21 (5) % | ED50 (Rats [13]): 34 mg/kg | Preliminary Hippocampal Kindling Test (Rats) Seizure Score, Drug (Rats [13]): 3 | Rat (po) MES, ED50 (Rat [6]; Ref 16, 32): 30 [4.0] mg/kg | Rat (po) PI (Rat [6]; Ref 32): >100 | Rat (po) MES, ED50 (Rat [6]; reference drugs marked h): 30 [4] | Rat (po) PI (Rat [6]; reference drugs marked h): >100

COCc1ccc(CNC(=O)[C@@H](COC)NC(C)=O)cc1 [(R)-8]
ED50 (Rat [1]; [19]): 45 mg/kg | TD50 ([2]; read-out: Mice (ip) Tox, TD50): 180 mg/kg | TD50 [14]: > 500 mg/kg

Reference: patent publication US8829033B2, “N-benzylamide substituted derivatives of 2-(acylamido)acetic acid and 2-(acylamido)propionic acids: potent neurological agents” (The University of North Carolina at Chapel Hill, priority 2009, dated 2014)
